# Several values for one entry are separate records, joined by “and”; a condition that tells them apart may be missing. Equal entries are not always repeated.
# Legend:
# Assay type in all cases: in vivo, Balb/c mice
# [1] = tested on: cells from peripheral blood (monocytes, granulocytes); experiment: Phagocytosis of HEMA particles by cells from peripheral blood after intraperitoneal injection; details: for % of phagocytosing granulocytes / % of phagocytosing monocytes: peripheral blood 24 hrs after i.p. injection
# Method: A group of Balb/c mice (Jackson laboratory, Bar Harbor, ME, USA) has been injected intraperitoneally with either PBS (Control; Sigma, St. Louis, Mo., USA), Laminaritetraose or Laminaripentaose. 24 hrs later, mice were sacrified, peripheral blood from the orbital plexus was collected into heparine (5 IU/ml) (Sigma).
# After counting, a test of phagocytosis of HEMA particles (synthetic microspheres prepared from 2-hydroxyethylmethacrylate copolymer) was performed as described in: Rembaum et al., 1976, Vetvicka et al. 1982, Bilej et al., 1989.
# 0.1 ml of heparinized fresh blood was added to 0.05 ml of diluted HEMA particles (5×10^8/ml) and incubated for 60 minutes at 37° C. with occasional gentle agitation.
# After the end of incubation, the cell suspension was smeared over microscope slides. Smears were evaluated under the optical microscope after Accustain (modified Wright stain, Sigma) staining.
# Cells with at least three engulfed particles were considered to be positive.
# TNF-alpha = experiment: Cytokine level in peripheral blood: TNF-alpha in serum by OptEIA Mouse TNF-alpha ELISA; details: for TNF-alpha level (Table 6, same experiments as Table 5): 250 μg/mouse, unit not given in Table 6 (Table 5: pg/ml)
# Method: Balb/c mice were intraperitoneally injected with 50 μg of Laminaritetraose, Laminaripentaose, Laminarin or Lentinan (purchased from NIH, Bethesda, Md., USA) in PBS.
# After various time intervals (30, 60 and 90 minutes, respectively), after the injection of Laminaritetraose, Laminaripentaose, Laminarin, Lentinan only, the mice were killed and blood was collected in Eppendorf tubes.
# Subsequently, the serum of the collected blood was separated, collected and stored at −80° C. for no more than 1 week.
# The level of TNF-alpha in the serum samples was evaluated using a commercial kit marketed as OptEIA Mouse TNF-alpha (Mono/Mono) Set by the Company Pharmingen, San Diego, Calif., USA); the manufacturer's instructions were followed.
# In connection with the experiments carried out by Applicants, Balb/c mice were intraperitoneally injected with various doses (50, 100, and 250 μg) of Soluble laminarin and Lentinan (from NIH, Bethesda, Md., USA) in PBS.
# Control mice were treated with PBS only. […]
# Subsequently, the serum was prepared, collected and stored at −80° C. for no more than 1 week.
# The level of TNF-alpha in serum samples was evaluated using a commercial kit marketed as OptEIA Mouse TNF-alpha (Mono/Mono) Set by the Company Pharmingen, San Diego, Calif., USA); the manufacturer's instructions were followed.
# In that respect, The wells of 96-well plates were coated with 0.1 ml/well of capture antibody (provided in the above kit) diluted in coating buffer (also provided in the above kit); the expression “capture antibody” designates first antibody used for coating of wells; this antibody captures the tested cytokines from the solution; in this assay it was anti-mouse-TNF-alpha monoclonal antibody.
# The plates were sealed and incubated overnight at 4° C.
# Individual wells were emptied by aspiration and washed 3 times with over 300 el/well of wash buffer (also provided in the kit).
# Reaction was blocked with 200 el/well of assay dilutant diluent (also provided in the kit) and by incubation for 60 minutes at room temperature.
# Again, individual wells were emptied by aspiration and washed 3 times with over 300 el/well of the same wash buffer.
# Standards (also provided in the kit) and samples of serum were diluted in assay diluent (also provided in the kit) and pipetted (100 μl/well) in appropriate wells; as far as the dissolution rate is concerned standards (part of the kit) were diluted according to the instructions into following concentrations: 1000 pg/ml, 500 pg/ml, 250, 125, 62.5, 31.3, and 15.6 pg/ml.
# The plates were sealed and incubated for 60 minutes at room temperature. Individual wells were aspirated and washed 3 times with over 300 μl/well of the same wash buffer. A quantity of 100 μl/well of a working detector (antibody-avidin-HRP conjugate also provided in the kit) was added into each well.
# The plates were sealed with plastic foils and incubated for 60 minutes at room temperature. Individual wells were emptied by aspiration and washed 3 times with over 300 μl/well of same wash buffer.
# A quantity of 100 μl/well of substrate solution (also provided in the kit) was added to each well and the plates were incubated for 30 minutes in the dark at room temperature; “substrate solution” is formed by mixing a substrate reagent A containing hydrogen peroxide and Substrate reagent B containing 3,3′,5,5′-tetramethylbenzidine in organic solvent; when mixed together, the reagent reacts with peroxidase-labeled conjugates to develop a blue color.
# A quantity of 50 μl/well of stop solution provided in the kit and adapted to stop the reaction was added to each well and the optical density was determined using a STL ELISA reader (marketed by Tecan U.S., Research Triangle Park, N.C.) at 450 nm with a correction at 570 nm.
# The concentration of TNF-alpha, in pg/ml, in the blood of the mice treated as hereabove disclosed has been determined at the following moments: 30, 60 and 90 minutes after the injection of Laminaritetraose, Laminaripentaose, Lentinan and control. […]
# [2] = tested on: peritoneal cells (macrophages, lymphocytes, mast cells); experiment: Differential count in peritoneal cells; details: for % of lymphocytes / % of macrophages / % of mast cells: peritoneal cells 24 hrs after i.p. injection
# Method: Using the same experimental groups as described above in Example 4, two extra microscopic slides from each experimental sample were prepared. After Accustain (modified Wright stain, Sigma) staining, the slides were evaluated using the optical microscope for presence of individual types of cells, i.e. macrophages, lymphocytes and mast cells.
# peritoneal macrophages = experiment: Phagocytosis of HEMA particles by cells from peritoneal cavity after intraperitoneal injection; details: for % of phagocytosing macrophages: peritoneal cells 24 hrs after i.p. injection
# Method: A group of Balb/c mice (Jackson laboratory, Bar Harbor, Me., USA) has been injected intraperitoneally with either PBS (control), Laminaritetraose or Laminaripentaose. 24 hrs later, mice were sacrificed, peritoneal cells were collected into Hanks medium (Sigma).
# After counting the cells in hemocytometer, the peritoneal cells were diluted to lxlO7 cells in RPMI 1640 medium (Sigma) with 5% fetal calf serum (Hyclone, Logan, Utah, USA).
# 2×10^6 cells in 0.2 ml of RPMI 1640 medium supplemented with 5% fetal calf serum were mixed with the same volume of HEMA particles (5×10^8/ml).
# The suspension was incubated for 60 minutes at 37° C. with occasional agitation. Incubation was terminated by centrifugation (150 g for 5 minutes) and the pellet was resuspended.
# Macrophages with ingested particles were scored under the optical microscope in smears after Accustain (modified Wright stain, Sigma) staining.
# Cells with six or more engulfed particles were considered to be positive.
# [3] = tested on: peripheral blood cells (monocytes, lymphocytes, granulocytes); experiment: Differential count in blood; details: for % of granulocytes / % of lymphocytes / % of monocytes: peripheral blood 24 hrs after i.p. injection
# Method: Using the same experimental groups as described above in Example 3, two extra microscopic slides from each experimental sample were prepared. After Accustain (modified Wright stain, Sigma) staining, the slides were evaluated using the optical microscope for presence of individual types of cells, i.e. monocytes, lymphocytes and granulocytes.
# [4] = individual values, cells with at least three engulfed HEMA particles positive
# [5] = mean, at least three engulfed HEMA particles
smiles,measurement,setting,value
"OC[C@H]1O[C@@H](O[C@@H]2[C@@H](O)[C@H](O[C@@H]3[C@@H](O)[C@H](O[C@@H]4[C@@H](O)[C@H](O)O[C@H](CO)[C@H]4O)O[C@H](CO)[C@H]3O)O[C@H](CO)[C@H]2O)[C@H](O)[C@@H](O)[C@@H]1O [Laminaritetraose, β-D-glucopyranosyl-(1→3)-β-D-glucopyranosyl-(1→3)-β-D-glucopyranosyl-(1→3)-β-D-glucopyranose]",% of phagocytosing granulocytes,[1]; [4],28.6% and 32.3% and 32.6%
same,% of phagocytosing monocytes,[1]; [4],36.8% and 30.9% and 39.8%
same,% of phagocytosing granulocytes,[1]; [5],31.2%
same,% of phagocytosing monocytes,[1]; [5],35.8%
same,Effect on phagocytosis in monocytes and granulocytes (in words),"[1]; peripheral blood, versus PBS control",strongly stimulate phagocytosis
same,Concentration of TNF alpha in blood of treated mice,"TNF-alpha; 50 μg/mouse i.p., 30 min",55.7 pg/mL
same,Concentration of TNF alpha in blood of treated mice,"TNF-alpha; 50 μg/mouse i.p., 60 min",103.0 pg/mL
same,Concentration of TNF alpha in blood of treated mice,"TNF-alpha; 50 μg/mouse i.p., 90 min",35.3 pg/mL
same,Concentration of TNF alpha in blood of treated mice,"TNF-alpha; 100 μg/mouse i.p., 30 min",39.0 pg/mL
same,Concentration of TNF alpha in blood of treated mice,"TNF-alpha; 100 μg/mouse i.p., 60 min",18.4 pg/mL
same,Concentration of TNF alpha in blood of treated mice,"TNF-alpha; 100 μg/mouse i.p., 90 min",13.6 pg/mL
same,Concentration of TNF alpha in blood of treated mice,"TNF-alpha; 250 μg/mouse i.p., 30 min",27.3 pg/mL
same,Concentration of TNF alpha in blood of treated mice,"TNF-alpha; 250 μg/mouse i.p., 60 min",152.3 pg/mL
same,Concentration of TNF alpha in blood of treated mice,"TNF-alpha; 250 μg/mouse i.p., 90 min",11.1 pg/mL
same,"TNF-alpha level (Table 6, same experiments as Table 5)",TNF-alpha; 24 hours,28.1 pg/mL
same,"TNF-alpha level (Table 6, same experiments as Table 5)",TNF-alpha; 48 hours,35.9 pg/mL
same,Relative activity on TNF-alpha level (in words),"TNF-alpha; comparison between substances, Table 6, 24 and 48 h",more active than yest derived glucan (Lentinan)
same,Increase of TNF-alpha secretion compared with Lentinan (in words),"TNF-alpha; low doses, indirect activation of macrophages and cytotoxic T lymphocytes",significantly higher
same,% of lymphocytes,[2]; individual values,45.9% and 50.4% and 44.1%
same,% of macrophages,[2]; individual values,41.2% and 43.6% and 46.8%
same,% of mast cells,[2]; individual values,12.9% and 6.0% and 9.1%
same,% of lymphocytes,[2]; mean,46.8%
same,% of macrophages,[2]; mean,43.9%
same,% of mast cells,[2]; mean,9.3%
same,Effect on migration of macrophage into the peritoneal cavity (in words),[2]; versus PBS control,stimulate the migration of macrophage
same,% of phagocytosing macrophages,"peritoneal macrophages; individual values, cells with six or more engulfed HEMA particles positive",46.2% and 51.5% and 44.5%
same,% of phagocytosing macrophages,"peritoneal macrophages; mean, six or more engulfed HEMA particles",47.4%
same,Effect on phagocytosis of peritoneal macrophages (in words),"peritoneal macrophages; peritoneal cells, versus PBS control",strongly stimulate phagocytosis
same,% of granulocytes,[3]; individual values,33.2% and 34.4% and 30.1%
same,% of lymphocytes,[3]; individual values,57.7% and 55.6% and 61.4%
same,% of monocytes,[3]; individual values,9.1% and 10.0% and 8.5%
same,% of granulocytes,[3]; mean,32.6%
same,% of lymphocytes,[3]; mean,58.2%
same,% of monocytes,[3]; mean,9.2%
same,Effect on number of granulocytes in the peripheral blood (in words),[3]; versus PBS control,increase the number of granulocytes

# — patent publication US20050065114A1, “Therapeutical treatment with oligo-beta- (1,3) -glucans, drugs used in said treatment” (priority 2003, published 2005)
